Measurements from patent US9795587B2, “Compounds for enhancing hypoxia inducible factor activity and methods of use” (Cornell Research Foundation, Inc., priority 2005, dated 2017).

What was measured:
[1] = test system: hypoxia response element regulated reporter gene; experiment: Hypoxia response element (enolase promoter) luciferase reporter in cortical neurons; format: cell-based, rat; settings: 40 μM, positive control, FIG. 5
Method: FIG. 5. A cell permeant, peptide inhibitor of the HIF prolyl 4-hydroxylase, but not a mutant control, induces expression of HIF-dependent genes. […] The low molecular weight P4H inhibitor, FG-0041 (40 μM) was used as a positive control. To determine whether the Tat-HIF/ODD/wt peptide stabilizes HIF-1 leading to activation of HIF-1 dependent gene expression, the levels of a luciferase reporter gene that is regulated by a hypoxia response element found in the enolase gene promoter was monitored.

HIF-1 = experiment: HIF-luciferase reporter (enolase 1 promoter-luciferase) in stably transfected HT22 cells; format: cell-based; settings: HT22 murine hippocampal cells, FIG. 3
Method: HT22 murine hippocampal cells were stably transfected with an enolase 1 promoter-luciferase reporter construct and selected with puromycin. Tilorone analogues R-10,874-DA, R-11,567-DA, and R-9536-DA were tested for their ability to activate a HIF-luciferase reporter. Luciferase activity was measured using a Luciferase Assay System (PROMEGA) according to the manufacture's protocol.

HIF-1 target genes = experiment: Expression of HIF-1 target genes in rat cerebral cortex (real time RT-PCR); format: in vivo; settings: 100 mg/kg i.p., Sprague Dawley rats, FIG. 4
Method: HIF-1α protein levels were determined in nuclear extracts using a monoclonal anti-HIF-1α antibody (NOVUS Biologicals). Real time RT-PCR was performed in a ABI-7500 instruments using commercial Taqman gene expression assays (Applied BioSystems). Male Sprague Dawley rats, weighing 275-350 gm, were used in these experiments. For surgical procedures, anesthesia was induced with 5% isofluorane delivered in oxygen and maintained at 1.5% throughout surgery. Core body temperature was maintained at 37° C. by a homeothermic heating blanket. Animals were subjected to MCAo by the intraluminal filament method. The right external carotid artery was ligated, cauterized, and cut, and its branches were coagulated. A 35 mm length of 4-0 nylon monofilament (Ethicon) with a rounded tip was then inserted into the internal carotid artery via the proximal end of the external carotid artery stump. The filament was advanced 20 mm beyond the carotid artery bifurcation with slight resistance was encountered. The tilorone analogues R-10,874-DA, R-11,567-DA, and R-9536-DA were injected 100 mg/kg i.p. 24 h pre-MCAo. Equivalent volume of saline was injected i.p. to control rats. Animals were sacrificed 24 h post-MCAo.

O=C(O)c1c[nH]c2c(ccc3cccnc32)c1=O [FG-0041]
induction of the HIF-dependent reporter gene [1]: stimulated

CN(C)CCOc1ccc2c(=O)c3ccc(OCCN(C)C)cc3oc2c1.Cl.Cl [R-10,874-DA, 3,6-bis[2-(dimethylamino)ethoxy]-9h-xanthen-9-one dihydrochloride]
HIF-1 transcriptional activity (HIF-luciferase reporter) (HIF-1): increase HIF-1 transcriptional activity | expression of HIF-1 target genes in the rat cerebral cortex (HIF-1 target genes): induce the expression of HIF-1 target genes

CN(C)CC(=O)c1ccc2oc3ccc(C(=O)CN(C)C)cc3c2c1.Cl.Cl.O [R-11,567-DA, 2,8-bis[dimethylaminoacetyl]dibenzofurin dihydrochloride hydrate]
HIF-1 transcriptional activity (HIF-luciferase reporter) (HIF-1): increase HIF-1 transcriptional activity | expression of HIF-1 target genes in the rat cerebral cortex (HIF-1 target genes): induce the expression of HIF-1 target genes
